Measurements reported in patent EP2008653A1, “Serotonergic compounds for treating neuronal illnesses” (Charité-Universitätsmedizin Berlin, priority 2007, dated 2008).

Tested on: fokalen Ischämie in Mäusen
Experiment: Mouse model of focal ischemia (30 min MCAo/reperfusion), overall outcome
Type: in vivo, Mäuse
Conditions: Mirtazapin 20 mg/kg i.p. starting 7 days after MCAo/reperfusion
Source text: Die erfindungsgemäßen neuroprotektiven und neuroregenerativen/neuroplastischen Effekte von SSRI auf neuronale Krankheiten wurde anhand eines anerkannten Tiermodells zur fokalen Ischämie in Mäusen untersucht. […] Tag nach der Induktion der Ischämie einsetzte.
Anschließend wurden die SRRI Effekte auf das Volumen der ischämischen Läsionen ausgewertet. Ferner wurden die Tiere Standard-Verhaltenstests unterzogen. Zudem wurden die Konzentrationen ausgewählter Neurotransmitter erfaßt.
Die Tierversuche wurden nach den Maßgaben des Tierschutzgesetzes in Übereinstimmung mit institutionellen und internationalen Richtlinien durchgeführt. Männliche 12936/SvEv-Mäuse (18-20 g, Bundesamt für Gesundheitsschutz Berlin) wurden in Gruppen von 4-5 Mäusen pro Käfig in Standardlaborkäfigen bei einer Umgebungstemperatur von 20-21°C bei einem 12 h-Licht-Dunkel-Rhythmus (8.00 Uhr/20.00 Uhr) mit freiem Zugang zu Futter und Wasser gehalten. Die Narkose der Mäuse erfolgte mit 1% Isofluran in 69% N20 und 30% 02 mit einem Narkoseverdampfer. Die Tiere wurden einer 30 min Fliamentokklusion der Arteria cerebri media (MCAo) unterworfen, wobei die Körpertemperatur und der regionale cerebrale Blutfluss wie beschrieben gemessen wurden (Endres et al., 1998). […]

CN1CCN2c3ncccc3Cc3ccccc3C2C1 (racemic) [Mirtazapin, (RS)-(±)-2-Methyl-1,2,3,4,10,14b-hexahydropyrazino [2,1-a]pyrido[2,3-c][2]benzazepin]
Ergebnisse (overall outcome in the MCAo model): entsprachen denjenigen, die mit Citalopram erreicht wurden
